Assay results reported in patent US3941842A, “P,P'-Disubstituted α-trichloromethylbenzylanilines” (priority 1972, dated 1976).
Where “and” joins values, the source holds several entries; their conditions need not be identical. Identical values can stand only once.

Columns and labels:
Musca domestica Rsp = experiment: Topical LD50 to adult female RSP houseflies; conditions: for LD50: Musca domestica, read-out: Topical LD50, Musca domestica Rsp, Alone; for LD50 / Topical LD50, Musca domestica Rsp, with pb: topical; for Topical LD50, Musca domestica Rsp, with pb: RSP strain, synergized with piperonyl butoxide; for SR, Musca domestica Rsp: synergistic ratio: LD50 alone/LD50 synergized with piperonyl butoxide
Procedure: (§1) The compounds of the present invention were tested for insecticidal activity by standard methods, and compared with the insecticidal activities of DDT and symmetrical analogs of DDT, such methoxychlor. Toxicological methods for the determination of the topical LD50 values to adult female SNAIDM and RSP houseflies, Musca domestica L. and to Phormia regina, and LC50 values to Culex pipiens quinquefasciatus Say, and Anopheles albimanus Weid mosquitoes were described by Metcalf el al., 44 Bull. World Health Org. 363 (1971). The methods for evaluation of metabolism by mouse liver homogenate and by female RSP housefly and salt-marsh caterpillar larvae Estigmene acrea Drury, were described by Kapoor et al., 18 J. Agr. Food Chem. 1145 (1970). The techniques for model eocsystem evluation were described by Metcalf et al., 5 J. Environ. Sci. Tech. 709 (1971).
(§2) Since piperonyl butoxide serves to block the action of MFO, the synergized LD50 values express the intrinsic toxicity of the compounds. With the detoxifying action of MFO enzymes blocked, the intrinsic toxicity of the compounds can thus be measured.

Musca domestica Snaidm = experiment: Topical LD50 to adult female SNAIDM houseflies; conditions: for LD50: Musca domestica, read-out: Topical LD50, Musca domestica Snaidm, Alone; for LD50 / Topical LD50, Musca domestica Snaidm, with pb: topical; for Topical LD50, Musca domestica Snaidm, with pb: SNAIDM strain, synergized with piperonyl butoxide; for SR, Musca domestica Snaidm: synergistic ratio: LD50 alone/LD50 synergized with piperonyl butoxide
Procedure: as §1, §2

Phormia regina = experiment: whole plant or invertebrate; conditions: for LD50: Phormia regina, read-out: Topical LD50, Phormia regina, Alone; for LD50 / Topical LD50, Phormia regina, with pb: topical; for SR, Phormia regina: synergistic ratio: LD50 alone/LD50 synergized with piperonyl butoxide; for Topical LD50, Phormia regina, with pb: synergized with piperonyl butoxide
Procedure: as §1, with “363 (1971).” left out, “Food Chem. 1145 (1970).” left out, “Tech.” for “Tech. 709 (1971).”
as §2

[1] = system: Anopheles albimanus larvae; experiment: LC50 to Anopheles albimanus larvae; assay type: in vivo, Anopheles albimanus Weid
Source text: (§3) World Health Org. 363 (1971). […] Food Chem. 1145 (1970). […] Sci. Tech. 709 (1971). The results are detailed in Table II. ##SPC1##

Culex fatigans larvae = experiment: LC50 to Culex fatigans larvae; assay type: in vivo, Culex pipiens quinquefasciatus Say
Source text: as §3

[2] = system: Musca domestica (SNAIDM and RSP strains), Phormia regina, Culex fatigans and Anopheles albimanus; experiment: Insecticidal activity over the test insects (Table II, summarised in words); assay type: in vivo; conditions: for insecticidal effectiveness / toxicity (in words): overall, test insects of Table II; for SR values (in words): synergism by piperonyl butoxide
Procedure: as §1, §2

Clc1ccc(NC(c2ccc(Cl)cc2)C(Cl)(Cl)Cl)cc1 (stereo not drawn) [Compound I]
LD50 (Musca domestica Rsp): 220 mg/kg
Topical LD50, Musca domestica Rsp, with pb (Musca domestica Rsp): 25 μg per g
SR, Musca domestica Rsp (Musca domestica Rsp): 8.8
LD50 (Musca domestica Snaidm): 115 mg/kg
Topical LD50, Musca domestica Snaidm, with pb (Musca domestica Snaidm): 13.5 μg per g
SR, Musca domestica Snaidm (Musca domestica Snaidm): 8.5
LD50 (Phormia regina): > 250 mg/kg
SR, Phormia regina (Phormia regina): > 5.5
Topical LD50, Phormia regina, with pb (Phormia regina): 42.5 μg per g
LC50 Anopheles albimanus larvae [1]: 0.090 ppm
LC50 Culex fatigans larvae (Culex fatigans larvae): 0.026 ppm
toxicity to adult insects (in words) ([2]; adult insects): low toxicity to adult insects
larvicidal effectiveness (in words) ([2]; mosquito larvae): very effective larvicide

Cc1ccc(NC(c2ccc(C)cc2)C(Cl)(Cl)Cl)cc1 (stereo not drawn) [IV]
LD50 (Musca domestica Rsp): 43 mg/kg
Topical LD50, Musca domestica Rsp, with pb (Musca domestica Rsp): 6.5 μg per g
SR, Musca domestica Rsp (Musca domestica Rsp): 6.6
LD50 (Musca domestica Snaidm): 43 mg/kg
Topical LD50, Musca domestica Snaidm, with pb (Musca domestica Snaidm): 5.0 μg per g
SR, Musca domestica Snaidm (Musca domestica Snaidm): 8.6
LD50 (Phormia regina): 33.7 mg/kg
Topical LD50, Phormia regina, with pb (Phormia regina): 21.0 μg per g
LC50 Anopheles albimanus larvae [1]: 0.21 ppm
LC50 Culex fatigans larvae (Culex fatigans larvae): 0.18 ppm
insecticidal effectiveness / toxicity (in words) [2]: one of the more insecticidal compounds

COc1ccc(NC(c2ccc(Cl)cc2)C(Cl)(Cl)Cl)cc1 (stereo not drawn) [VI]
LD50 (Musca domestica Rsp): 49 mg/kg
Topical LD50, Musca domestica Rsp, with pb (Musca domestica Rsp): 14.0 μg per g
SR, Musca domestica Rsp (Musca domestica Rsp): 3.4
LD50 (Musca domestica Snaidm): 39 mg/kg
Topical LD50, Musca domestica Snaidm, with pb (Musca domestica Snaidm): 6.5 μg per g
SR, Musca domestica Snaidm (Musca domestica Snaidm): 6.0
LD50 (Phormia regina): 128 mg/kg
SR, Phormia regina (Phormia regina): 1.6
Topical LD50, Phormia regina, with pb (Phormia regina): 80 μg per g
LC50 Anopheles albimanus larvae [1]: 0.37 ppm
LC50 Culex fatigans larvae (Culex fatigans larvae): 0.44 ppm
SR values (in words) [2]: higher SR values

CN(C)c1ccc(C(Nc2ccc([N+](=O)[O-])cc2)C(Cl)(Cl)Cl)cc1 (stereo not drawn) [XXVI]
LD50 (Musca domestica Rsp): > 500 mg/kg
Topical LD50, Musca domestica Rsp, with pb (Musca domestica Rsp): 500 μg per g
LD50 (Musca domestica Snaidm): > 500 mg/kg
Topical LD50, Musca domestica Snaidm, with pb (Musca domestica Snaidm): 120 μg per g
SR, Musca domestica Snaidm (Musca domestica Snaidm): > 4
LD50 (Phormia regina): > 250 mg/kg
Topical LD50, Phormia regina, with pb (Phormia regina): > 250 μg per g
LC50 Anopheles albimanus larvae [1]: > 1.0 ppm
LC50 Culex fatigans larvae (Culex fatigans larvae): 0.38 ppm
insecticidal effectiveness / toxicity (in words) [2]: Toxicity was also substantially decreased

COc1ccc(C(Nc2ccc(C3CCCCC3)cc2)C(Cl)(Cl)Cl)cc1 (stereo not drawn) [XXVII]
LD50 (Musca domestica Rsp): > 500 mg/kg
Topical LD50, Musca domestica Rsp, with pb (Musca domestica Rsp): 165 μg per g
SR, Musca domestica Rsp (Musca domestica Rsp): > 3
LD50 (Musca domestica Snaidm): > 500 mg/kg
Topical LD50, Musca domestica Snaidm, with pb (Musca domestica Snaidm): 48 μg per g
SR, Musca domestica Snaidm (Musca domestica Snaidm): > 10
LD50 (Phormia regina): > 250 mg/kg
Topical LD50, Phormia regina, with pb (Phormia regina): 112.5 μg per g
LC50 Anopheles albimanus larvae [1]: > 1.0 ppm
LC50 Culex fatigans larvae (Culex fatigans larvae): 1.0 ppm
insecticidal effectiveness / toxicity (in words) [2]: Toxicity was also substantially decreased

CCCCOc1ccc(C(Nc2ccc(OC)cc2)C(Cl)(Cl)Cl)cc1 (stereo not drawn) [XVIII]
LD50 (Musca domestica Rsp): 230 mg/kg
Topical LD50, Musca domestica Rsp, with pb (Musca domestica Rsp): 32.0 μg per g
SR, Musca domestica Rsp (Musca domestica Rsp): 7.2
LD50 (Musca domestica Snaidm): 370 mg/kg
Topical LD50, Musca domestica Snaidm, with pb (Musca domestica Snaidm): 12.5 μg per g
SR, Musca domestica Snaidm (Musca domestica Snaidm): 30
LD50 (Phormia regina): > 250 mg/kg
Topical LD50, Phormia regina, with pb (Phormia regina): 67.5 μg per g
LC50 Anopheles albimanus larvae [1]: 0.77 ppm
LC50 Culex fatigans larvae (Culex fatigans larvae): 0.60 ppm
insecticidal effectiveness / toxicity (in words) [2]: Toxicity was also substantially decreased

CCOc1ccc(C(Nc2ccccc2OCC)C(Cl)(Cl)Cl)c(OCC)c1 (stereo not drawn) [XXII]
LD50 (Musca domestica Rsp): > 500 mg/kg
Topical LD50, Musca domestica Rsp, with pb (Musca domestica Rsp): 500 μg per g
LD50 (Musca domestica Snaidm): > 500 mg/kg
Topical LD50, Musca domestica Snaidm, with pb (Musca domestica Snaidm): 500 μg per g
LD50 (Phormia regina): > 250 mg/kg
Topical LD50, Phormia regina, with pb (Phormia regina): > 250 μg per g
LC50 Anopheles albimanus larvae [1]: > 1.0 ppm
LC50 Culex fatigans larvae (Culex fatigans larvae): > 1.0 ppm
insecticidal effectiveness / toxicity (in words) [2]: Toxicity was also substantially decreased

COc1ccc(NC(c2ccc(OC)cc2)C(Cl)(Cl)Cl)cc1 (stereo not drawn) [Compound II]
LD50 (Musca domestica Rsp): 500 mg/kg
Topical LD50, Musca domestica Rsp, with pb (Musca domestica Rsp): 13.5 μg per g
SR, Musca domestica Rsp (Musca domestica Rsp): 37 and > 37
LD50 (Musca domestica Snaidm): > 500 mg/kg
Topical LD50, Musca domestica Snaidm, with pb (Musca domestica Snaidm): 5.5 μg per g
SR, Musca domestica Snaidm (Musca domestica Snaidm): 100 and > 100
LD50 (Phormia regina): 118 mg/kg
Topical LD50, Phormia regina, with pb (Phormia regina): 35.0 μg per g
synergism in Phormia (in words) (Phormia regina; with piperonyl butoxide): substantially synergized in Phormia
LC50 Anopheles albimanus larvae [1]: 0.64 ppm
LC50 Culex fatigans larvae (Culex fatigans larvae): > 1.0 ppm
insecticidal effectiveness / toxicity (in words) [2]: very low toxicity

COc1ccc(NC(c2ccc(N(C)C)cc2)C(Cl)(Cl)Cl)cc1 (stereo not drawn) [XXV]
LD50 (Musca domestica Rsp): > 500 mg/kg
Topical LD50, Musca domestica Rsp, with pb (Musca domestica Rsp): 13.5 μg per g
SR, Musca domestica Rsp (Musca domestica Rsp): > 37
LD50 (Musca domestica Snaidm): 310 mg/kg
Topical LD50, Musca domestica Snaidm, with pb (Musca domestica Snaidm): 16.0 μg per g
SR, Musca domestica Snaidm (Musca domestica Snaidm): 19.4
LD50 (Phormia regina): > 250 mg/kg
Topical LD50, Phormia regina, with pb (Phormia regina): 85.0 μg per g
LC50 Anopheles albimanus larvae [1]: 1.0 ppm
LC50 Culex fatigans larvae (Culex fatigans larvae): 0.70 ppm
insecticidal effectiveness / toxicity (in words) [2]: Toxicity was also substantially decreased

CCOc1ccc(C(Nc2ccccc2OCC)C(Cl)(Cl)Cl)cc1 (stereo not drawn) [XXI]
LD50 (Musca domestica Rsp): > 500 mg/kg
Topical LD50, Musca domestica Rsp, with pb (Musca domestica Rsp): 140 μg per g
SR, Musca domestica Rsp (Musca domestica Rsp): > 3.5
LD50 (Musca domestica Snaidm): > 500 mg/kg
Topical LD50, Musca domestica Snaidm, with pb (Musca domestica Snaidm): 110 μg per g
SR, Musca domestica Snaidm (Musca domestica Snaidm): > 5
LD50 (Phormia regina): > 250 mg/kg
Topical LD50, Phormia regina, with pb (Phormia regina): > 250 μg per g
LC50 Anopheles albimanus larvae [1]: > 1.0 ppm
LC50 Culex fatigans larvae (Culex fatigans larvae): > 1.0 ppm
insecticidal effectiveness / toxicity (in words) [2]: Toxicity was greatly decreased

CCOc1ccc(NC(c2ccccc2)C(Cl)(Cl)Cl)cc1 (stereo not drawn) [XIX]
LD50 (Musca domestica Rsp): > 500 mg/kg
Topical LD50, Musca domestica Rsp, with pb (Musca domestica Rsp): 120 μg per g
SR, Musca domestica Rsp (Musca domestica Rsp): > 4
LD50 (Musca domestica Snaidm): > 500 mg/kg
Topical LD50, Musca domestica Snaidm, with pb (Musca domestica Snaidm): 31.0 μg per g
SR, Musca domestica Snaidm (Musca domestica Snaidm): > 16
LD50 (Phormia regina): > 250 mg/kg
Topical LD50, Phormia regina, with pb (Phormia regina): > 250 μg per g
LC50 Anopheles albimanus larvae [1]: 0.61 ppm
LC50 Culex fatigans larvae (Culex fatigans larvae): > 1.0 ppm
insecticidal effectiveness / toxicity (in words) [2]: Toxicity was greatly decreased

COc1ccc(C(Nc2ccc(C)cc2C)C(Cl)(Cl)Cl)cc1 (stereo not drawn) [XXIV]
LD50 (Musca domestica Rsp): 140 mg/kg
Topical LD50, Musca domestica Rsp, with pb (Musca domestica Rsp): 29.0 μg per g
SR, Musca domestica Rsp (Musca domestica Rsp): 4.8
LD50 (Musca domestica Snaidm): 95 mg/kg
Topical LD50, Musca domestica Snaidm, with pb (Musca domestica Snaidm): 14.0 μg per g
SR, Musca domestica Snaidm (Musca domestica Snaidm): 6.8
LD50 (Phormia regina): 97.5 mg/kg
Topical LD50, Phormia regina, with pb (Phormia regina): 25.0 μg per g
LC50 Anopheles albimanus larvae [1]: 0.080 ppm
LC50 Culex fatigans larvae (Culex fatigans larvae): 0.28 ppm
insecticidal effectiveness / toxicity (in words) [2]: Toxicity was also substantially decreased

COc1ccc(NC(c2ccc(C)cc2)C(Cl)(Cl)Cl)cc1 (stereo not drawn) [Compound X]
LD50 (Musca domestica Rsp): 65 mg/kg
Topical LD50, Musca domestica Rsp, with pb (Musca domestica Rsp): 7.5 μg per g
SR, Musca domestica Rsp (Musca domestica Rsp): 8.7
LD50 (Musca domestica Snaidm): 48 mg/kg
Topical LD50, Musca domestica Snaidm, with pb (Musca domestica Snaidm): 8.5 μg per g
SR, Musca domestica Snaidm (Musca domestica Snaidm): 5.6
LD50 (Phormia regina): 135 mg/kg
SR, Phormia regina (Phormia regina): 9.6
Topical LD50, Phormia regina, with pb (Phormia regina): 14.0 μg per g
LC50 Anopheles albimanus larvae [1]: 0.48 ppm
LC50 Culex fatigans larvae (Culex fatigans larvae): 0.54 ppm
SR values (in words) [2]: higher SR values

CCOc1ccc(C(Nc2ccc(Cl)cc2)C(Cl)(Cl)Cl)cc1 (stereo not drawn) [VII, α-trichloromethyl1p-ethoxybenzyl-p-chloroaniline]
LD50 (Musca domestica Rsp): 31 mg/kg
Topical LD50, Musca domestica Rsp, with pb (Musca domestica Rsp): 13.5 μg per g
SR, Musca domestica Rsp (Musca domestica Rsp): 2.3
LD50 (Musca domestica Snaidm): 19 mg/kg
Topical LD50, Musca domestica Snaidm, with pb (Musca domestica Snaidm): 10.5 μg per g
SR, Musca domestica Snaidm (Musca domestica Snaidm): 1.8
LD50 (Phormia regina): 24.5 mg/kg
Topical LD50, Phormia regina, with pb (Phormia regina): 20.0 μg per g
LC50 Anopheles albimanus larvae [1]: 0.060 ppm
LC50 Culex fatigans larvae (Culex fatigans larvae): 0.032 ppm
insecticidal effectiveness / toxicity (in words) [2]: only slightly less active than compound XI
